From patent publication US20250136555A1 (HARBIN MEDISAN PHARMACEUTICAL CO., LTD., priority 2022, published 2025)
Read-outs that look alike come from different tables or passages of the source.

Experiments:
Type in all cases: cell-based
PPARδ = molecular target: T1, PPARδ (Homo sapiens, UniProt Q03181); test: GAL4 hybrid reporter gene method, PPARδ agonistic activity
T1 construct: expressed in transfected cells; host or cells: COS-7
T1 sequence (Q03181 211-439 limits assumed): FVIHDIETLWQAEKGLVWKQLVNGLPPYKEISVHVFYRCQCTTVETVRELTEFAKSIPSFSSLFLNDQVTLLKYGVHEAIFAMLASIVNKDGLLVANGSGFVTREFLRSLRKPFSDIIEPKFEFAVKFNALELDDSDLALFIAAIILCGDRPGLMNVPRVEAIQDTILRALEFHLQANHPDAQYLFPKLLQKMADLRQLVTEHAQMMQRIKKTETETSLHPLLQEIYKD
Experimental: (§1) Cos-7 cells (African green monkey kidney fibroblasts, commonly used tool cells) were cultured in a 10-cm cell culture dish with a DMEM complete medium containing 10% fetal bovine serum. When growing at a density of about 70%, the cells were ready for transfection. […] The working solution described above was then combined with 8 mL of the DMEM complete medium, and the mixture was added to the cell culture dish for cell transfection. After 4 h of transfection, the cells were digested, resuspended, and seeded into a 96-well plate at 25,000 cells/well. […] 10 μL of a reporter gene detection solution (purchased from Shanghai Beyotime Biological Tech. Co., Ltd.) was added. After the resulting solution was mixed and reacted, biological fluorescence was detected by using a multifunctional microplate reader, and corresponding half maximal effective concentration (EC50) values were calculated according to the detection values. […] Transfection working solutions for different nuclear receptors were prepared and added into COS-7 cells. The preparation method for the transfection working solution was as follows: the constructed pBIND-Gal4-PPARα (LBD) (or pBIND-Gal4-PPARδ (LBD) plasmid or pBIND-Gal4-PPARγ (LBD) plasmid or pBIND-Gal4-RARα (LBD) plasmid or pBIND-Gal4-RARγ (LBD) plasmid or pBIND-Gal4-RARβ (LBD) plasmid or pBIND-Gal4-RORα (LBD) plasmid or pBIND-Gal4-RORγ (LBD) plasmid or pBIND-Gal4-RORβ (LBD) plasmid or pBIND-Gal4-FXR (LBD) plasmid or pBIND-Gal4-RXRα.

PPARα = molecular target: T2, PPARα (Homo sapiens, UniProt Q07869); test: GAL4 hybrid reporter gene method, PPARα agonistic activity; conditions: Cos-7 cells, Gal4-PPARα (LBD); GW7647 10 nM = 100%; 16 h
T2 construct: expressed in transfected cells; host or cells: COS-7
T2 sequence (Q07869 239-466 limits assumed): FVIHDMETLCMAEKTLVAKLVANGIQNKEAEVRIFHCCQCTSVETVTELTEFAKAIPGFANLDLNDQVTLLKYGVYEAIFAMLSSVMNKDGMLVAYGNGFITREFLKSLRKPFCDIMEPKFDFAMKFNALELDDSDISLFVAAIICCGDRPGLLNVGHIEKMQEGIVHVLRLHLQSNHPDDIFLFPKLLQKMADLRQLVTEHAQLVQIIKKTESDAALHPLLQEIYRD
Experimental: as §1

PPARγ = molecular target: T3, PPARγ (Homo sapiens, UniProt P37231); test: GAL4 hybrid reporter gene method, PPARγ agonistic activity
T3 construct: expressed in transfected cells; host or cells: COS-7
T3 sequence (P37231 238-503 limits assumed): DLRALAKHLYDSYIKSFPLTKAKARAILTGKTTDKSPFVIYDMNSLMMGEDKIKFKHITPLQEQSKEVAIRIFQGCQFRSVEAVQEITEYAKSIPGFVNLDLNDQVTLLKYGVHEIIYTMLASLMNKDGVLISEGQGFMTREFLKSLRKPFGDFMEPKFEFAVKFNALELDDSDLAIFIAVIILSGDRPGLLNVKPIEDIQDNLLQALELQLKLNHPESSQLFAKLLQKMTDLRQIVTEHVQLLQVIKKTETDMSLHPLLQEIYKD
Experimental: as §1

[1] = Cos-7 cells, Gal4-PPARδ (LBD), GW501516 10 nM = 100%, 16 h
[2] = Cos-7 cells, Gal4-PPARγ (LBD), Rosiglitazone 1 μM = 100%, 16 h

Row | Compound | EC50 (PPARδ; [1]) [nM] | EC50 (PPARα) [nM] | EC50 (PPARγ; [2]) [nM] | PPARδ EC50 (nM) (PPARδ; [1]) | PPARα EC50 (nM) (PPARα) | EC50 (PPARδ) [nM] | EC50 (PPARγ) [nM]
1 | Cc1cc(CCCN2C(=O)CN(c3ccc(C(F)(F)F)cc3)C2=O)cc(C)c1OC(C)(C)C(=O)O [Compound 89, 2-(4-(3-(2,5-Dioxo-3-(4-(trifluoromethyl)phenyl)imidazolidin-1-yl)propyl)-2,6-dimethylphenoxy)-2-methylpropionic Acid] | 20.3 | 67 | 628 | – | – | – | –
2 | Cc1cc(CN2C(=O)CN(c3ccc(C(F)(F)F)c(Cl)c3)C2=O)cc(C)c1OC(C)(C)C(=O)O [Compound 33, 2-(2,6-Dimethyl-4-((3-(3-chloro-4-(trifluoromethyl)phenyl)-2,5-dioxoimidazolin-1-yl)methyl)phenoxy)-2-methylpropionic Acid] | 1.7 | 1 | 657 | low nanomolar levels | low nanomolar levels | – | –
3 | COc1cc(CN2C(=O)CN(c3ccc(C(F)(F)F)cc3)C2=O)cc(Cl)c1OC(C)(C)C(=O)O [Compound 73, 2-(2-Chloro-4-((2,5-dioxo-3-(4-(trifluoromethyl)phenyl)imidazolin-1-yl)methyl)-6-methoxyphenoxy)-2-methylpropionic Acid] | – | 2.4 | – | – | – | 31 | 2120
4 | Cc1cc(CN2C(=O)CN(c3ccc(C4CC4)cc3)C2=O)cc(C)c1OC(C)(C)C(=O)O [Compound 101] | – | 1 | – | low nanomolar levels | low nanomolar levels | 10.2 | 313
5 | Cc1cc(CN2C(=O)N(c3ccc(C(F)(F)F)cc3)C(=O)C2(C)C)cc(C)c1OC(C)(C)C(=O)O [Compound 83] | 6.5 | 79.3 | 1680 | – | – | – | –
6 | Cc1cc(N2CC(=O)N(Cc3cc(C)c(OC(C)(C)C(=O)O)c(C)c3)C2=O)ccc1C(F)(F)F [Compound 29, 2-(2,6-Dimethyl-4-((3-(3-methyl-4-(trifluoromethyl)phenyl)-2,5-dioxoimidazolin-1-yl)methyl)phenoxy)-2-methylpropionic Acid] | – | 1.4 | – | low nanomolar levels | low nanomolar levels | 1 | 736
7 | Cc1cc(CN2C(=O)CN(c3ccc(F)cc3)C2=O)cc(C)c1OC(C)(C)C(=O)O [Compound 25, 2-(4-((3-(4-Fluorophenyl)-2,5-dioxoimidazolin-1-yl)methyl)-2,6-dimethylphenoxy)-2-methylpropionic Acid] | 72.3 | 101 | 3640 | – | – | – | –
8 | Cc1cc(CN2C(=O)CN(c3ccc(S(C)(=O)=O)cc3)C2=O)cc(C)c1OC(C)(C)C(=O)O [Compound 71, 2-(2,6-Dimethyl-4-((3-(4-(methylsulfonyl)phenyl)-2,5-dioxoimidazolin-1-yl)methyl)phenoxy)-2-methylpropionic Acid] | – | 1090 | – | – | – | > 5000 | > 5000
9 | Cc1cc(CN2C(=O)CN(c3ccc(C(F)(F)F)cc3)C2=O)cc(Cl)c1OC(C)(C)C(=O)O [Compound 13, 2-(2-Chloro-4-((2,5-dioxo-3-(4-(trifluoromethyl)phenyl)imidazolidin-1-yl)methyl)-6-methylphenoxy)-2-methylpropionic Acid] | – | 1.2 | – | – | – | 10.8 | 1290
10 | CC(C)(Oc1ccc(CN2C(=O)CN(c3ccc(C(F)(F)F)cc3)C2=O)cc1)C(=O)O [Compound 59, 2-(4-((2,5-Dioxo-3-(4-(trifluoromethyl)phenyl)imidazolin-1-yl)methyl)phenoxy)-2-methylpropionic Acid] | 359 | 277 | – | – | – | – | > 5000
11 | COc1cc(CN2C(=O)CN(c3ccc(C(F)(F)F)cc3)C2=O)ccc1OC(C)(C)C(=O)O [Compound 97] | – | 209 | – | – | – | 1400 | 2890
12 | COc1ccc(N2CC(=O)N(Cc3cc(C)c(OC(C)(C)C(=O)O)c(C)c3)C2=O)cc1 [Compound 39, 2-(4-((3-(4-Methoxyphenyl)-2,5-dioxoimidazolin-1-yl)methyl)-2,6-dimethylphenoxy)-2-methylpropionic Acid] | 36.1 | 18.8 | 3370 | – | – | – | –
13 | CC(C)(Oc1ccc(CN2C(=O)CN(c3ccc(C(F)(F)F)cc3)C2=O)cc1Br)C(=O)O [Compound 77, 2-(2-Bromo-4-((2,5-dioxo-3-(4-trifluoromethyl)phenyl)imidazolidin-1-yl)methylphenoxy)-2-methylpropionic Acid] | – | 74.1 | – | – | – | 25.3 | 3190
14 | Cc1cc(CN2C(=O)CN(c3ccc(C#N)cc3)C2=O)cc(C)c1OC(C)(C)C(=O)O [Compound 37, 2-(4-((3-(4-Cyanobenzene)-2,5-dioxoimidazolin-1-yl)methyl)-2,6-dimethylphenoxy)-2-methylpropionic Acid] | 84.4 | 98.1 | 4060 | – | – | – | –
15 | CCC(Oc1c(C)cc(CN2C(=O)CN(c3ccc(C(F)(F)F)cc3)C2=O)cc1C)C(=O)O (stereo not drawn) [Compound 67, 2-(4-((2,5-Dioxo-3-(4-(trifluoromethyl)phenyl)imidazolin-1-yl)methyl)-2,6-dimethylphenoxy)butyric Acid] | – | 14.1 | – | – | – | 3.4 | 1920
16 | Cc1cc(CN2CC(=O)N(c3ccc(C(F)(F)F)cc3)C2=O)cc(C)c1OC(C)(C)C(=O)O [Compound 81, 2-(4-((2,4-Dioxo-3-(4-(trifluoromethyl)phenyl)imidazolidin-1-yl)methyl)-2,6-dimethylphenoxy)-2-methylpropionic Acid] | 82.1 | 165 | – | – | – | – | > 5000
17 | Cc1cc(CN2C(=O)CN(c3ccccc3)C2=O)cc(C)c1OC(C)(C)C(=O)O [Compound 35, 2-(4-((2,5-Dioxo-3-phenylimidazolin-1-yl)methyl)-2,6-dimethylphenoxy)-2-methylpropionic Acid] | 90.5 | 166 | 2100 | – | – | – | –
18 | CC(C)(Oc1c(F)cc(CN2C(=O)CN(c3ccc(C(F)(F)F)cc3)C2=O)cc1F)C(=O)O [Compound 21, 2-(4-((2,5-Dioxo-3-(4-(trifluoromethyl)phenyl)imidazolin-1-yl)methyl)-2,6-difluorophenoxy)-2-methylpropionic Acid] | 101 | 42.9 | – | – | – | – | > 5000
19 | Cc1cc(CN2C(=O)CN(c3ccc(C=O)cc3)C2=O)cc(C)c1OC(C)(C)C(=O)O [Compound 99] | – | 402 | – | – | – | > 5000 | > 5000
20 | Cc1cc(CN2C(=O)CN(c3cccc(F)c3)C2=O)cc(C)c1OC(C)(C)C(=O)O [Compound 103] | – | 102 | – | – | – | 97.6 | 474
21 | Cc1cc(CN2C(=O)CN(c3ccc(F)c(Cl)c3)C2=O)cc(C)c1OC(C)(C)C(=O)O [Compound 105] | – | 21.9 | – | – | – | 40.5 | 165
22 | CCOc1ccc(N2CC(=O)N(Cc3cc(C)c(OC(C)(C)C(=O)O)c(C)c3)C2=O)cc1 [Compound 95] | – | 10.9 | – | – | – | 66.9 | 1330
23 | Cc1cc(CN2C(=O)CN(c3ccc(C(F)(F)F)cc3)C2=O)cc(C)c1OCC(=O)O [Compound 53, 2-(4-((2,5-Dioxo-3-(4-(trifluoromethyl)phenyl)imidazolin-1-yl)methyl)-2,6-dimethylphenoxy)acetic Acid] | 175 | 325 | – | – | – | – | > 5000
24 | Cc1cc(CN2C(=O)CN(c3cccc(OC(F)(F)F)c3)C2=O)cc(C)c1OC(C)(C)C(=O)O [Compound 109] | – | 31.7 | – | – | – | 15.1 | 363
25 | CC(C)(Oc1c(F)cc(CN2C(=O)CN(c3ccc(C(F)(F)F)cc3)C2=O)cc1Cl)C(=O)O [Compound 47, 2-(2-Chloro-4-((2,5-dioxo-3-(4-(trifluoromethyl)phenyl)imidazolin-1-yl)methyl)-6-fluorophenoxy)-2-methylpropionic Acid] | – | 9.9 | – | – | – | 19 | > 5000
26 | Cc1cc(CCCN2CC(=O)N(c3ccc(C(F)(F)F)cc3)C2=O)cc(C)c1OC(C)(C)C(=O)O [Compound 91, 2-(4-(3-(2,4-Dioxo-3-(4-(trifluoromethyl)phenyl)imidazolidin-1-yl)propyl)-2,6-dimethylphenoxy)-2-methylpropionic Acid] | – | 38 | – | – | – | 632 | 2690
27 | Cc1cc(CCN2C(=O)CN(c3ccc(C(F)(F)F)cc3)C2=O)cc(C)c1OC(C)(C)C(=O)O [Compound 85, 2-(4-(2-(2,5-Dioxo-3-(4-(trifluoromethyl)phenyl)imidazolidin-1-yl)ethyl)-2,6-dimethylphenoxy)-2-methylpropionic Acid] | 4.4 | 17.9 | – | – | – | – | 2720
